From US5510261A, “Method of controlling the degradation of glycoprotein oligosaccharides produced by cultured Chinese hamster ovary cells” (The Board of Trustees of the Leland Stanford Juniot …, priority 1995, dated 1996) come the findings set out here.

The experiment relates to neuraminidase present in CHO cell supernatant. The experiment can be described thus: Inhibition of CHO neuraminidase activity, 4MU-NANA artificial substrate assay. It is filed as biochemical, Chinese hamster. On the procedure:
The artificial substrate 2'-(4-methylumbelliferyl)-α-D-N-acetylneuraminic acid (4MU-NANA) was used to assay for neuraminidase activity (modified from Potier et al., Anal. Biochem., 1979, 94, 287). The standard assay for lysate neuraminidase activity contained 0.1M sodium acetate (pH 3-6) or potassium phosphate (pH 6-8) buffer (10 μl of 1 M stock), 1 mM 4MU-NANA (25 μl from a 4 mM aliquot), and the lysate of 0.25 million cells ([…]) in a total volume of 100 μl. Supernatant samples were assayed identically, with supernatant replacing the added cell lysate. The 100 μl samples in plastic 1.5 ml tubes were placed in a 37° C. water bath with a shaker for 30 minutes (sometimes 60 minutes), and the reaction was stopped with 0.9 ml of 0.2M glycine (pH 10.4). […] An HP 1090 Series II HPLC coupled to an HP 1046A flow through fluorescence detector (Hewlett-Packard) was used for automated sample injection and analysis (no column). […] The fluorescence was integrated vs. time and compared to standard 4-methylumbelliferyl dilutions. […]
Aliquots of previously frozen and disrupted cells were thawed to 37° C. and assayed for neuraminidase activity as in the standard assay except the 4MU-NANA concentration varied at 0.1, 0.2, 0.4, 1 and 2 mM (pH 4.5, 5.5, 6.5 and 7.5). […] Kinetic parameters were determined by fitting an integrated form of the Michaelis-Menton equation: […]

In the case of `CC(=O)N[C@H]1[C@H]([C@H](O)[C@H](O)CO)OC(C(=O)O)=C[C@@H]1O` [2,3-D, 2,3-dehydro-2-deoxy-N-acetylneuraminic acid], the “inhibition of the neuraminidase present in CHO cell supernatant” value is “shown to inhibit”.
Under `CC(=O)N[C@H]1[C@H]([C@H](O)[C@H](O)CO)OC(O)(C(=O)O)C[C@@H]1O` (some centres unmarked) [NANA, N-acetylneuraminicacid] stands “shown to inhibit”.
